This note sets out measurements from patent US20140088066A1, “PLATINUM COMPOUNDS, COMPOSITIONS AND METHODS FOR THE TREATMENT OF CANCER” (Blend Therapeutics, priority 2012, published 2014).

Data set [1] is described as follows: physchem. As to the method:
Nanoparticle formulation of compound of Formula XVI. […] (cold) or at 20-25° C. (warm) and stored refrigerated or frozen with 10% sucrose.

A short description of data set [2]: physchem. The source holds these as a separate data set.

Read-outs that look alike come from different tables or passages of the source.

With `CCCCCCCCCCCCCCCCCC(=O)[O][Pt]([NH2])([NH2])[n+]1cc2ccccc2c2ccccc21` [Compound 27, phenantriplatin (stearate) nitrate], the “saturated solubility in ethyl acetate (EA)” value in “physchem [1]” is reported as “low”. Moreover, the solubility in “physchem [1]” (organic solvent or mixture) was 1500 µg/mL; in the data set “physchem [2]” it was less than 100 µg/mL.
Molecule phenanthriplatin [phenantriplatin] came in with an aqueous solubility in “Aqueous solubility” of 5000 µg/mL.

For orientation: solubility means the concentration that dissolves in the medium under given conditions. The term aqueous solubility denotes the dissolved amount per volume that the medium holds. Low readings indicate a poorly soluble substance, high ones a readily soluble substance.
